Reference: patent US8691870B2, “Use of isothiocyanates for treating cancer” (Mackay Memorial Hospital, priority 2011, dated 2014)
Where two headings read alike, the source gives them in different places.

Columns and labels:
Assay type in all cases: cell-based, human
[1] = tested on: imatinib resistant CML K562R cells; assay: Cell cycle analysis (flow cytometry) of imatinib resistant CML K562R cells; conditions: 24 hours
Procedure: The CML cell line, K562R, was cultured in the presence of a continuous low dose of imatinib mesylate, which is also termed STI-571, to generate their resistance to imatinib. In operation, K562R cells were maintained in the DMEM supplemented with 10% fetal calf serum (FCS), 100 IU/ml penicillin, 100 μg/ml streptomycin, 2 mM glutamine and 0.2 μM imatinib in 5% CO2 at 37° C.
(§1) The fixed cells were then warmed up to room temperature and treated with RNAase A for about 30 min. Precipitated cells were collected by centrifugation and re-suspended in a buffer solution containing propidium iodine (20 μg/ml) before being subject to flow cytometry analysis, where cell numbers at respective cell cycles were determined.
(§2) The imatinib resistant human chronic myelogenous leukemia (CML) cell line K562R was induced by procedures described above in the “Materials and Methods” Section. Anti-proliferative activity of I7557 and I7557 were respectively assessed by cell viability and cell cycle analysis, as well as by immunoblot and Liu's Staining.

[2] = tested on: imatinib resistant CML K562R cells; assay: Liu's staining, morphology of imatinib resistant CML K562R cells; conditions: 20 μM, indicates apoptosis and mitotic arrest
Source text: as §2

β-tubulin = assay: Immunoblot analysis of β-tubulin in K562R cells; conditions: FIG. 4
Procedure: (§3) Cultured cells were lysed by use of well known lysing buffer, and total amount of proteins were determined by Bradford method. […] The separated proteins were then transferred to nitrocellulose membrane and non-specific binding was removed by TBST buffer (0.8% NaCl, 0.02% KCl, 25 mM Tris-HCl/pH 8.0 and 0.1% Tween-20) containing 4% skim milk. Antibodies including p-Plk-1, p-Chk-1, p-Chk-2, p-Cdc2, GAPDH, α-tubulin, β-tubulin, and p-histone H3 (purchased from Transduction Laboratories, Lexington, Ky., USA), were respectively dissolved in TBST buffer containing 2% skim milk and incubated with the separated protein bands at 4° C. for at least over night; followed by incubation with horseradish conjugated secondary antibodies at room temperature for about 30 min, and then detected by ECL chemiluminesance detection kit (Amersham Pharmacia Biotech, US).

cyclin B1 = assay: Immunoblot analysis of cyclin B1 in K562R cells; conditions: FIG. 5
Procedure: as §3

p-Plk-1 = assay: Immunoblot analysis of phosphorylated Plk-1 in K562R cells; conditions: FIG. 6
Procedure: as §3

p-Chk-1 = assay: Immunoblot analysis of p-Chk-1 in K562R cells; conditions: FIG. 7
Procedure: as §3

p-Chk-2 = assay: Immunoblot analysis of p-Chk-2 in K562R cells; conditions: FIG. 8
Procedure: as §3

p-Cdc2 kinase = assay: Immunoblot analysis of p-cdc2 kinase in K562R cells; conditions: FIG. 9
Procedure: as §3

[3] = tested on: phosphorylated histone H3; assay: Immunoblot analysis of phosphorylated histone H3 in K562R cells; conditions: FIG. 10
Procedure: as §3

PANC-1 cells [4] = assay: Cell cycle analysis of PANC-1 cells; conditions: 24 hours
Procedure: as §1

PANC-1 cells [5] = assay: Radiation treatment and clonogenic assay, PANC-1 cells
Source text: (§4) The drugs were then washed out, and cells were subject to radiation treatment. Specifically, 6 MeV electron beam energy was delivered by a linear accelerator (Clinac 1800, Varian Associates, Inc., Palo Alto, Calif., USA) with a rate of 2.4 Gy/min at various dose including 0, 0.5, 1, 2 and 4 Gy in a single fraction. Full electron equilibrium was ensured for each fraction by a parallel plate PR-60C ionization chamber ([…], Inc., Ramsey, N.Y., USA).
(§5) After radiation treatment, cells were returned to the culture for another 10 to 14 days; then were stained with 3% crystal violet and the numbers of colony (≧50 cells) were counted.
(§6) The colony is defined to consist of at least 50 cells.

BxPC-3 cells = assay: Radiation treatment and clonogenic assay, BxPC-3 cells
Source text: as §4, §5, §6

81T/VGH cells = assay: MTT cell viability assay on 81T/VGH cells; parameters: key to Cell viability (MTT reading), I / Cell viability (MTT reading), II / Cell viability (MTT reading), III / Cell viability (MTT reading), Average: absorbance at 570 nm; conditions: 48 hours; for Cell viability (MTT reading), I: replicate I; for Cell viability (MTT reading), II: replicate II; for Cell viability (MTT reading), III: replicate III
Procedure: (§7) Cell lines used in the present disclosure include human chronic myelogenous leukemia (CML) cell line K562, Imatinib-resistant K562 cell line K562R, human pancreatic carcinoma, epithelial-like cell line PANC-1, human pancreatic cancer cell line BxPc-3, human large cell lung cancer cell line SEG-1, human esophageal squamous cell carcinoma line 81T/VGH and human esophageal adenocarcinoma line BE-3. Each cell lines were cultured and maintained in Dulbecco's modified Eagle media (DMEM) supplemented with 10% fetal calf serum, 100 IU/ml penicillin, 100 μg/ml streptomycin, and 2 mM glutamine in 5% CO2 at 37° C.
(§8) The absorbance of the solution at 570 nm was measured by spectrophotometer.

BE-3 cells = assay: MTT cell viability assay on BE-3 cells; parameters: key to Cell viability (MTT reading), I / Cell viability (MTT reading), II / Cell viability (MTT reading), Average / Cell viability (MTT reading), III: absorbance at 570 nm; conditions: for Cell viability (MTT reading), I: replicate I; for Cell viability (MTT reading), II: replicate II
Procedure: as §7, §8

CS(=O)(=O)CCCCCCN=C=S [I7557, 6-methylsulfonylhexyl isothiocyanate]
Cell Cycle (%) G0/G1 ([1]; 5 μM): 30.79 ± 2.28% | Cell Cycle (%) G2/M ([1]; 5 μM): 22.84 ± 0.60% | Cell Cycle (%) S ([1]; 5 μM): 46.38 ± 1.73% | Cell Cycle (%) Sub-G1% ([1]; 5 μM): 0.52 ± 0.07% | Cell Cycle (%) G0/G1 ([1]; 10 μM): 30.52 ± 0.96% | Cell Cycle (%) G2/M ([1]; 10 μM): 18.40 ± 1.16% | Cell Cycle (%) S ([1]; 10 μM): 51.08 ± 0.36% | Cell Cycle (%) Sub-G1% ([1]; 10 μM): 1.18 ± 0.08% | Cell Cycle (%) G0/G1 ([1]; 20 μM): 11.54 ± 6.51% | Cell Cycle (%) G2/M ([1]; 20 μM): 65.10 ± 8.16% | Cell Cycle (%) S ([1]; 20 μM): 23.36 ± 2.45% | Cell Cycle (%) Sub-G1% ([1]; 20 μM): 5.33 ± 1.46% | Cell morphology after Liu's staining [2]: round up with an appearance of a balloon | β-tubulin levels vs control cells (β-tubulin): lowered | level of cyclin B1 vs control (cyclin B1): increased | level of phosphorylated Plk-1 vs control (p-Plk-1): increased | level of p-Chk-1 vs control (p-Chk-1): decreased | level of p-Chk-2 vs control (p-Chk-2): decreased | level of p-cdc2 kinase vs control (p-Cdc2 kinase): decreased | levels of phosphorylated histone H3 vs control cells [3]: significantly higher | Cell Cycle (%) G0/G1 (PANC-1 cells [4]; 10 μM): 45.43 ± 1.27% | Cell Cycle (%) G2/M (PANC-1 cells [4]; 10 μM): 28.38 ± 2.41% | Cell Cycle (%) S (PANC-1 cells [4]; 10 μM): 26.19 ± 3.28% | Cell Cycle (%) Sub-G1% (PANC-1 cells [4]; 10 μM): 0.79 ± 0.05% | Cell Cycle (%) G0/G1 (PANC-1 cells [4]; 20 μM): 24.71 ± 2.98% | Cell Cycle (%) G2/M (PANC-1 cells [4]; 20 μM): 55.84 ± 0.63% | Cell Cycle (%) S (PANC-1 cells [4]; 20 μM): 19.45 ± 3.32% | Cell Cycle (%) Sub-G1% (PANC-1 cells [4]; 20 μM): 2.05 ± 0.44% | Number of colonies (clonogenic assay) (PANC-1 cells [5]; PANC-1, 5 μM pre-treatment 24 hours, radiation 0 Gy): 60 | Number of colonies (clonogenic assay) (PANC-1 cells [5]; PANC-1, 5 μM pre-treatment 24 hours, radiation 0.5 Gy): 63 | Number of colonies (clonogenic assay) (PANC-1 cells [5]; PANC-1, 5 μM pre-treatment 24 hours, radiation 1 Gy): 59 | Number of colonies (clonogenic assay) (PANC-1 cells [5]; PANC-1, 5 μM pre-treatment 24 hours, radiation 2 Gy): 48 | Number of colonies (clonogenic assay) (PANC-1 cells [5]; PANC-1, 5 μM pre-treatment 24 hours, radiation 4 Gy): 20 | susceptibility of cells to radiation treatment (PANC-1 cells [5]; PANC-1, 10 μM): enhancing the susceptibility | Number of colonies (clonogenic assay) (PANC-1 cells [5]; PANC-1, 10 μM pre-treatment 24 hours, radiation 0 Gy): 41 | Number of colonies (clonogenic assay) (PANC-1 cells [5]; PANC-1, 10 μM pre-treatment 24 hours, radiation 0.5 Gy): 26 | Number of colonies (clonogenic assay) (PANC-1 cells [5]; PANC-1, 10 μM pre-treatment 24 hours, radiation 1 Gy): 35 | Number of colonies (clonogenic assay) (PANC-1 cells [5]; PANC-1, 10 μM pre-treatment 24 hours, radiation 2 Gy): 19 | Number of colonies (clonogenic assay) (PANC-1 cells [5]; PANC-1, 10 μM pre-treatment 24 hours, radiation 4 Gy): 6 | Number of colonies (clonogenic assay) (BxPC-3 cells; BxPC-3, 5 μM pre-treatment 24 hours, radiation 0 Gy): 33 | Number of colonies (clonogenic assay) (BxPC-3 cells; BxPC-3, 5 μM pre-treatment 24 hours, radiation 0.5 Gy): 37 | Number of colonies (clonogenic assay) (BxPC-3 cells; BxPC-3, 5 μM pre-treatment 24 hours, radiation 1 Gy): 39 | Number of colonies (clonogenic assay) (BxPC-3 cells; BxPC-3, 5 μM pre-treatment 24 hours, radiation 2 Gy): 29 | Number of colonies (clonogenic assay) (BxPC-3 cells; BxPC-3, 5 μM pre-treatment 24 hours, radiation 4 Gy): 9 | Number of colonies (clonogenic assay) (BxPC-3 cells; BxPC-3, 10 μM pre-treatment 24 hours, radiation 0 Gy): 16 | Number of colonies (clonogenic assay) (BxPC-3 cells; BxPC-3, 10 μM pre-treatment 24 hours, radiation 0.5 Gy): 15 | Number of colonies (clonogenic assay) (BxPC-3 cells; BxPC-3, 10 μM pre-treatment 24 hours, radiation 1 Gy): 8 | Number of colonies (clonogenic assay) (BxPC-3 cells; BxPC-3, 10 μM pre-treatment 24 hours, radiation 2 Gy): 7 | Number of colonies (clonogenic assay) (BxPC-3 cells; BxPC-3, 10 μM pre-treatment 24 hours, radiation 4 Gy): 1 | susceptibility of cells to radiation treatment (BxPC-3 cells; BxPc-3, 10 μM): enhancing the susceptibility | Cell viability (MTT reading), Average (81T/VGH cells; 10 μM): 1.514 ± 0.104 | Cell viability (MTT reading), I (81T/VGH cells; 10 μM): 1.324 | Cell viability (MTT reading), II (81T/VGH cells; 10 μM): 1.682 | Cell viability (MTT reading), III (81T/VGH cells; 10 μM): 1.537 | Cell viability (MTT reading), Average (81T/VGH cells; 20 μM): 0.965 ± 0.086 | Cell viability (MTT reading), I (81T/VGH cells; 20 μM): 0.804 | Cell viability (MTT reading), II (81T/VGH cells; 20 μM): 0.991 | Cell viability (MTT reading), III (81T/VGH cells; 20 μM): 1.100 | inhibition at 10 µM (81T/VGH cells; Homo sapiens, 10 μM): 30.6 ± 5.18% | inhibition at 20 µM (81T/VGH cells; Homo sapiens, 20 μM): 55.4 ± 6.11% | Cell viability (MTT reading), Average (BE-3 cells; BE-3, 10 μM, 48 hours): 1.635 ± 0.078 | Cell viability (MTT reading), I (BE-3 cells; BE-3, 10 μM, 48 hours): 1.581 | Cell viability (MTT reading), II (BE-3 cells; BE-3, 10 μM, 48 hours): 1.534 | Cell viability (MTT reading), Average (BE-3 cells; BE-3, 20 μM, 48 hours): 1.151 ± 0.028 | Cell viability (MTT reading), I (BE-3 cells; BE-3, 20 μM, 48 hours): 1.105 | Cell viability (MTT reading), II (BE-3 cells; BE-3, 20 μM, 48 hours): 1.147 | Cell viability (MTT reading), III (BE-3 cells; BE-3, 20 μM, 48 hours, replicate III): 1.201 | inhibition at 10 µM (BE-3 cells; Homo sapiens, BE-3, 10 μM, 48 hours): 26.8 ± 1.05% | inhibition at 20 µM (BE-3 cells; Homo sapiens, BE-3, 20 μM, 48 hours, read-out: % of inhibition): 48.4 ± 1% | inhibition at 20 µM (BE-3 cells; Homo sapiens, BE-3, 20 μM, read-out: cancerous cells' growth inhibition): ~50%
